Data from patent publication US7232835B2, “3,6-Disubstituted azabicyclo derivatives as muscarinic receptor antagonists” (Ranbaxy Laboratories Limited, priority 2002, dated 2007).
Like-named read-outs stand apart in the source and are kept apart here. Each block holds one compound with its values, some of them ahead of it.

Tests used:
isolated rat bladder = test: tissue or blood; type: cell-based
M2 muscarinic receptor = molecular target: T1, M2 muscarinic receptor (Rattus norvegicus, UniProt P10980); test: [3H]-N-methylscopolamine radioligand binding assay, rat heart membranes
T1 construct: Submandibular glands and heart were isolated and placed in ice cold homogenising buffer; from tissue; host or cells: rat heart membrane homogenate
T1 sequence (P10980 1-466): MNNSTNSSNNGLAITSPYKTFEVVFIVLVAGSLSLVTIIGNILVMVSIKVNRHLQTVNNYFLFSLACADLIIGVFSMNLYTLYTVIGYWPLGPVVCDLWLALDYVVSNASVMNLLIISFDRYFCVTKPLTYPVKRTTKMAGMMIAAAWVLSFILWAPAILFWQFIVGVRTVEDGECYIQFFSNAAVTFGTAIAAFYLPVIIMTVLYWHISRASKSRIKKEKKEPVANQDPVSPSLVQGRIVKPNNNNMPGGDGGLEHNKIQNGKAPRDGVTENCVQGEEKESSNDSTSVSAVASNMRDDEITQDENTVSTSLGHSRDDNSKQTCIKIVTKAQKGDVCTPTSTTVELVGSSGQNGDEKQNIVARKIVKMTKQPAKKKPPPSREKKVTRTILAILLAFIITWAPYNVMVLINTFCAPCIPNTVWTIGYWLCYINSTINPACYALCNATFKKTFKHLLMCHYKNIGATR

M3 muscarinic receptor = molecular target: T2, M3 muscarinic receptor (Rattus norvegicus, UniProt P08483); test: [3H]-N-methylscopolamine radioligand binding assay, rat submandibular gland membranes; parameters: Receptor Binding Assay Selectivity: reference not given here; conditions: for Ki / M3 Pki: rat submandibular gland, [3H]NMS
T2 construct: Submandibular glands and heart were isolated and placed in ice cold homogenising buffer; from tissue; host or cells: rat submandibular gland membrane homogenate

[1] = Table II, rat bladder strips, antagonism of carbachol contraction, read-out: Functional Assay KB
[2] = Table III, rat bladder strips, antagonism of carbachol contraction, read-out: Rat Bladder pKB (converted)
[3] = Table III, read-out: M3 Ki (nm)
[4] = Table III, rat heart, [3H]NMS, read-out: M2 Ki (nm)
[5] = Table IV, rat heart, [3H]NMS, read-out: Receptor Binding Assay (pKi) M2 (converted)
[6] = Table IV, read-out: Receptor Binding Assay (pKi) M3 (converted)

T2 sequence (P08483 whole entry): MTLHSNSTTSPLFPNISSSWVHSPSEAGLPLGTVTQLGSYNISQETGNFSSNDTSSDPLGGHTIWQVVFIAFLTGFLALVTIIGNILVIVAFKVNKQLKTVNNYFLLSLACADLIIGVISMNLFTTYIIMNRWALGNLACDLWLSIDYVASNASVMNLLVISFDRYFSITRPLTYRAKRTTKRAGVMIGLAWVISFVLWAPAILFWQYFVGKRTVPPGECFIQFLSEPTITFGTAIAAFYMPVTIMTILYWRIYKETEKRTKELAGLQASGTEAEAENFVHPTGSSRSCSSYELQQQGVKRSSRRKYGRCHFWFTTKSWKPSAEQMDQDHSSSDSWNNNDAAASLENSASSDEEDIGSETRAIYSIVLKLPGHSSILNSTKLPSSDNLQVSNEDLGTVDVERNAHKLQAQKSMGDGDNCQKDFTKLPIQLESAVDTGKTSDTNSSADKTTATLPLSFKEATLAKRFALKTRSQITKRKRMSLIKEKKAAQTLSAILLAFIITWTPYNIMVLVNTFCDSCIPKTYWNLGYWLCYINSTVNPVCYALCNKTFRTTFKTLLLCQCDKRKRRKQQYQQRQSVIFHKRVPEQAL

SMILES: O=C(N[C@H]1[C@@H]2CN(Cc3ccccc3)C[C@@H]21)C(O)(c1ccccc1)C1CCCCC1 (stereo partly drawn) [Compound No. 22, (1α,5α,6α)-6-N-(3-azabicyclo[3.1.0]hexyl-3-benzyl)-2-cyclohexyl-2-hydroxy-2-phenyl acetamide]
- Kb (isolated rat bladder; [1]): 27.5 nM
- Kb (isolated rat bladder; [2]): 26.9 nM
- Ki (M2 muscarinic receptor; M2 Ki (nm)): 2260 nM
- Ki (M2 muscarinic receptor; Receptor Binding Assay Ki (nM) M2): 2260 nM
- Receptor Binding Assay Selectivity (M3 muscarinic receptor): 24.07
- Ki (M3 muscarinic receptor; Table II, read-out: Receptor Binding Assay Ki (nM) M 3): 94 nM
- Ki (M3 muscarinic receptor; [3]): 94 nM

SMILES: O=C(NC1C2CN(Cc3cc(F)cc(F)c3)CC21)C(O)(c1ccccc1)C1CCCCC1 (stereo not drawn) [Compound No. 23, (1α,5α,6α)-6-N-(3-azabicyclo[3.1.0]hexyl-3-(3,5-difluorobenzyl))-2-cyclohexyl-2-hydroxy-2-phenyl acetamide]
- Kb (isolated rat bladder; [2]): 2290 nM
- Ki (M2 muscarinic receptor; [4]): > 1000 nM
- Ki (M3 muscarinic receptor; [3]): 530 nM

SMILES: O=C(NC1C2CN(Cc3ccc(Br)cc3)CC21)C(O)(c1ccccc1)C1CCCCC1 (stereo not drawn) [Compound No. 24, (1α,5α,6α)-6-N-(3-azabicyclo[3.1.0]hexyl-3-(4-bromobenzyl))-2-cyclohexyl-2-hydroxy-2-phenyl acetamide]
- Kb (isolated rat bladder; [2]): 3800 nM
- Ki (M2 muscarinic receptor; [4]): > 1000 nM
- Ki (M3 muscarinic receptor; [3]): 490 nM

SMILES: O=C(NC1C2CN(Cc3c(F)cccc3F)CC21)C(O)(c1ccccc1)C1CCCCC1 (stereo not drawn) [Compound No. 25, (1α,5α,6α)-6-N-(3-azabicyclo[3.1.0]hexyl-3-(2,6-difluorobenzyl))-2-cyclohexyl-2-hydroxy-2-phenyl acetamide]
- Kb (isolated rat bladder; [2]): 288 nM
- Ki (M2 muscarinic receptor; [4]): > 1000 nM
- Ki (M3 muscarinic receptor; [3]): 1700 nM

SMILES: O=C(NC1C2CN(CCc3ccc4c(c3)CCO4)CC21)C(O)(c1ccccc1)C1CCCCC1 (stereo not drawn) [Compound No. 28, (1α,5α,6α)-6-N-(3-azabicyclo[3.1.0]hexyl-3-(2-(2,3-dihydrobenzofuran-5-yl)ethyl))-2-cyclohexyl-2-hydroxy-2-phenyl acetamide]
- Ki (M2 muscarinic receptor; [4]): > 1000 nM
- Ki (M3 muscarinic receptor; [3]): 150 nM

SMILES: O=C(NC1C2CN(CCc3ccc4c(c3)OCO4)CC21)C(O)(c1ccccc1)C1CCCCC1 (stereo not drawn) [Compound No. 29, (1α,5α,6α)-6-N-(3-azabicyclo[3.1.0]hexyl-3-(2-(3,4-methylenedioxyphenyl)ethyl))-2-cyclohexyl-2-hydroxy-2-phenyl acetamide]
- Ki (M2 muscarinic receptor; [4]): > 1000 nM
- Ki (M3 muscarinic receptor; [3]): 97 nM

SMILES: O=C(Cc1ccc2c(c1)CCO2)N1CC2C(C1)C2NC(=O)C(O)(c1ccccc1)C1CCCCC1 (stereo not drawn) [Compound No. 30, (1α,5α,6α)-6-N-(3-azabicyclo[3.1.0]hexyl-3-(1-(2,3-dihydrobenzofuran-5-yl)acetyl))-2-cyclohexyl-2-hydroxy-2-phenyl acetamide]
- M2 pKi (M2 muscarinic receptor; Table III, rat heart, [3H]NMS): <5
- M3 Pki (M3 muscarinic receptor; Table III): 6.08
- Ki (M3 muscarinic receptor; [3]): 833 nM

SMILES: O=C(NC1C2CN(CCc3ccc4occc4c3)CC21)C(O)(c1ccccc1)C1CCCCC1 (stereo not drawn) [Compound No. 31, (1α,5α,6α)-6-N-(3-azabicyclo[3.1.0]hexyl-3-(2-(benzofuran-5-yl)ethyl))-2-cyclohexyl-2-hydroxy-2-phenyl acetamide]
- Ki (M2 muscarinic receptor; [4]): 1590 nM
- Ki (M3 muscarinic receptor; [3]): 233 nM

SMILES: C#CCN1CC2C(C1)C2NC(=O)C(O)(c1ccccc1)C1CCCCC1 (stereo not drawn) [Compound No. 35, (1α,5α,6α)-6-N-(3-azabicyclo[3.1.0]hexyl-3-(2-propargyl))-2-cyclohexyl-2-hydroxy-2-phenyl acetamide]
- Kb (isolated rat bladder; [2]): 24.5 nM
- Ki (M2 muscarinic receptor; [4]): 1180 nM
- Ki (M2 muscarinic receptor; Table III, rat heart, [3H]NMS, read-out: M2 pKi (converted)): > 1000 nM
- Ki (M3 muscarinic receptor; [3]): 429 nM

SMILES: CC(C)(C)c1ccc(C(O)(C(=O)NC2C3CN(Cc4ccccc4)CC32)C2CCCCC2)cc1 (stereo not drawn) [Compound No. 55, (1α,5α,6α)-6-N-(3-azabicyclo[3.1.0]hexyl-3-benzyl)-2-cyclohexyl-2-hydroxy-2-(4-tertbutylphenyl)acetamide]
- Ki (M2 muscarinic receptor; [4]): > 1000 nM
- Ki (M3 muscarinic receptor; [3]): 380 nM

SMILES: O=C(N[C@H]1[C@@H]2CN(CCc3ccc4c(c3)CCO4)C[C@@H]21)C(O)(c1ccccc1)C1CCCC1 (stereo partly drawn) [Compound No. 68, (1α,5α,6α)-6-N-(3-azabicyclo[3.1.0]hexyl-3-(2-(2,3-dihydrobenzofuran-5-yl)ethyl))-2-cyclopentyl-2-hydroxy-2-phenyl acetamide]
- Ki (M2 muscarinic receptor; [4]): > 1000 nM
- Ki (M3 muscarinic receptor; [3]): 108 nM

SMILES: Cc1cccc(N2CC3C(C2)C3NC(=O)C(O)(c2ccccc2)C2CCCC2)n1 (centres unmarked) [Compound No. 69]
- M2 pKi (M2 muscarinic receptor; Table III, rat heart, [3H]NMS): <5
- Ki (M2 muscarinic receptor; [4]): > 10000 nM
- M3 Pki (M3 muscarinic receptor; Table III): 5.85
- Ki (M3 muscarinic receptor; [3]): 1420 nM

SMILES: O=C(Cc1ccc2c(c1)CCO2)N1CC2C(C1)C2NC(=O)C(O)(c1ccccc1)C1CCCC1 (stereo not drawn) [Compound No. 70, (1α,5α,6α)-6-N-(3-azabicyclo[3.1.0]hexyl-3-(1-(2,3-dihydrobenzofuran-5-yl)acetyl))-2-cyclopentyl-2-hydroxy-2-phenyl acetamide]
- M2 pKi (M2 muscarinic receptor; Table III, rat heart, [3H]NMS): <5
- Ki (M2 muscarinic receptor; [4]): > 10000 nM
- M3 Pki (M3 muscarinic receptor; Table III): 6.12
- Ki (M3 muscarinic receptor; [3]): 750 nM

SMILES: O=C(N[C@H]1[C@@H]2CNC[C@@H]21)C(O)(c1ccccc1)C1CCCCC1 (stereo partly drawn) [Compound No. 85, (1α,5α,6α)-6-N-(3-azabicyclo[3.1.0]hexyl)-2-cyclohexyl-2-hydroxy-2-phenylacetamide]
- Ki (M2 muscarinic receptor; [5]): > 1000 nM
- Ki (M3 muscarinic receptor; [6]): > 1000 nM

SMILES: O=C(NC1C2CNCC21)C(O)(c1ccc(F)cc1)C1CCCCC1 (stereo not drawn) [Compound No. 86, (1α,5α,6α)-6-N-(3-azabicyclo-[3.1.0]hexyl)-2-cyclohexyl-2-hydroxy-2-(4-Fluorophenyl)acetamide]
- Ki (M2 muscarinic receptor; [5]): > 1000 nM
- Ki (M3 muscarinic receptor; [6]): > 1000 nM

SMILES: COc1ccc(C(O)(C(=O)NC2C3CNCC32)C2CCCCC2)cc1 (stereo not drawn) [Compound No. 87, (1α,5α,6α)-6-N-(3-azabicyclo-[3.1.0]hexyl)-2-cyclohexyl-2-hydroxy-2-(4-methyoxyphenyl)acetamide]
- Ki (M2 muscarinic receptor; [5]): > 1000 nM
- Ki (M3 muscarinic receptor; [6]): > 1000 nM

SMILES: Cc1ccc(C(O)(C(=O)N[C@H]2[C@@H]3CNC[C@@H]32)C2CCCCC2)cc1 (stereo partly drawn) [Compound No. 88, (1α,5α,6α)-6-N-(3-azabicyclo-[3.1.0]hexyl)-2-cyclohexyl-2-hydroxy-2-(4-methylphenyl)acetamide]
- Ki (M2 muscarinic receptor; [5]): > 1000 nM
- Ki (M3 muscarinic receptor; [6]): > 1000 nM

SMILES: O=C(NC1C2CNCC21)C(O)(c1ccccc1)C1CCCC1 (stereo not drawn) [Compound No. 89, (1α,5α,6α)-6-N-(3-azabicyclo-[3.1.0]hexyl)-2-cyclopentyl-2-hydroxy-2-phenylacetamide]
- Ki (M2 muscarinic receptor; [5]): > 1000 nM
- Ki (M3 muscarinic receptor; [6]): > 1000 nM

SMILES: O=C(N[C@H]1[C@@H]2CNC[C@@H]21)C(O)(c1ccccc1)C1CCCCCC1 (stereo partly drawn) [Compound No. 90, (1α,5α,6α)-6-N-(3-azabicyclo[3.1.0]hexyl)-2-cycloheptyl-2-hydroxy-2-phenylacetamide]
- Ki (M2 muscarinic receptor; [5]): > 1000 nM
- Ki (M3 muscarinic receptor; [6]): 363 nM

SMILES: O=C(N[C@H]1[C@@H]2CNC[C@@H]21)C(O)(c1ccccc1)C1CCC1 (stereo partly drawn) [Compound No. 91, (1α,5α,6α)-6-N-(3-azabicyclo[3.1.0]hexyl)-2-cyclobutyl-2-hydroxy-2-phenylacetamide]
- Ki (M2 muscarinic receptor; [5]): 100000 nM
- Ki (M3 muscarinic receptor; [6]): 2750 nM

SMILES: O=C(N[C@H]1[C@@H]2CNC[C@@H]21)C(O)(c1ccccc1)C1CC1 (stereo partly drawn) [Compound No. 92, (1α,5α,6α)-6-N-(3-azabicyclo-[3.1.0]hexyl)-2-cyclopropyl-2-hydroxy-2-phenylacetamide]
- Ki (M2 muscarinic receptor; [5]): > 10000 nM
- Ki (M3 muscarinic receptor; [6]): > 10000 nM

SMILES: CC(C)(C)OC(=O)N(CCCCOC(=O)C(O)(c1ccc(F)cc1)c1ccc(F)cc1)C1C2CNCC21 (stereo not drawn) [Compound No. 95, (1α,5α,6α)-4-[6-N-(3-azabicyclo[3.1.0]hexyl)]-N-(tert-butyloxycarbonyl)butyl-1-[2-hydroxy-2,2-bis-(4-fluorophenyl)]acetate]
- Ki (M2 muscarinic receptor; [5]): > 1000 nM
- Ki (M3 muscarinic receptor; [6]): > 1000 nM

- Ki (M2 muscarinic receptor; [5]): > 1000 nM
- Ki (M3 muscarinic receptor; [6]): > 1000 nM
SMILES: CCCOC(C(=O)OCCCCN(C(=O)OC(C)(C)C)C1C2CNCC21)(c1ccc(F)cc1)c1ccc(F)cc1 (stereo not drawn) [Compound No. 96, (1α,5α,6α)-4-[6-N-(3-azabicyclo-[3.1.0]hexyl)]-N-(tert-butyloxycarbonyl)butyl-1-[2-propyloxy-2,2-bis-(4-fluorophenyl)]acetate]

SMILES: O=C(N[C@H]1[C@@H]2CNC[C@@H]21)C(c1ccccc1)c1ccccc1 [Compound No. 97, (1α,5α,6α)-6N-(3-azabicyclo-[3.1.0]hexyl)-2,2-diphenyl acetamide]
- Ki (M2 muscarinic receptor; [5]): > 1000 nM
- Ki (M3 muscarinic receptor; [6]): > 1000 nM

- Ki (M2 muscarinic receptor; [5]): > 1000 nM
- Ki (M3 muscarinic receptor; [6]): > 1000 nM
SMILES: COC(C(=O)NC1C2CNCC21)(c1ccccc1)C1CCCCC1 (stereo not drawn) [Compound No. 98, (1α,5α,6α)-6N-(3-azabicyclo-[3.1.0]hexyl)-2-cyclohexyl-2-methoxy-2-phenyl acetamide]

SMILES: CCN(CC)CC#CCOC(=O)C(O)(c1ccccc1)C1CCCCC1 (centres unmarked) [Oxybutynin, oxybutynin, reference compound]
- Kb (isolated rat bladder; [1]): 2 nM

SMILES: Cc1ccc(O)c([C@H](CCN(C(C)C)C(C)C)c2ccccc2)c1 [Tolterodine, tolterodine, reference compound]
- Kb (isolated rat bladder; Rattus norvegicus, read-out: Functional Assay KB (nM)): 2 nM
- Kb (isolated rat bladder; Rattus norvegicus, read-out: Rat Bladder pKB (converted)): 1e+07 nM
